Assay results as given in patent publication US20240368151A1, “NOVEL ERGOLINES AND METHODS OF TREATING MOOD DISORDERS” (priority 2021, published 2024).

Tested on: C57BL/6 mice
Test: Marble burying test (MBT) in mice
Assay type: in vivo, mouse
Conditions: SC, 30-minute period
Experimental: Compound 1 produced an anxiolytic-like effect in the marble burying test (MBT) in C57BL/6 mice (FIG. 3).
Animals. Adult male C57BL/6 mice, aged 8-10 weeks (body weight 20-25 g) were used in these experiments. Animals were housed under controlled temperatures and 12-hour light/dark cycles (lights on between 07:00-19:00 h), with ad libitum food and water. This study was carried out in strict accordance with the requirements of the Committee for the Purpose of Control and Supervision of Experiments on Animals (CPCSEA), India. All efforts were made to minimize suffering.
Drugs and Drug Administration. Compound 1 was synthesized as described above. Desipramine HCl was commercially obtained. The test compound, vehicle, and the positive control desipramine were administered subcutaneously (SC), with doses calculated based on the freebase. Normal saline was used as the vehicle. All compounds were administered at a volume of 10 mL/kg. All treatments were administered 30 minutes prior to the start of behavioral testing. Group size was n=9-10 per treatment.
Marble Burying Test (MBT). […] Mice were handled for about 2 min daily for the 3 days prior to the beginning of the experimental procedure. […] The total number of marbles buried were counted in three 10-minute time bins (total 30 minutes). […]

## CCCN1C[C@H](C(=O)N(CC)CC)C=C2c3cccc4[nH]cc(c34)C[C@H]21 [Compound 1, (6aR,9R)-N,N-diethyl-7-propyl-4,6,6a,7,8,9-hexahydroindolo[4,3-fg]quinoline-9-carboxamide]
  number of marbles buried compared to vehicle, in words: reduced the number of marbles buried
